One assay deals with T1, GCK (Homo sapiens, UniProt Q12851).
T1 sequence (Q12851 1-820): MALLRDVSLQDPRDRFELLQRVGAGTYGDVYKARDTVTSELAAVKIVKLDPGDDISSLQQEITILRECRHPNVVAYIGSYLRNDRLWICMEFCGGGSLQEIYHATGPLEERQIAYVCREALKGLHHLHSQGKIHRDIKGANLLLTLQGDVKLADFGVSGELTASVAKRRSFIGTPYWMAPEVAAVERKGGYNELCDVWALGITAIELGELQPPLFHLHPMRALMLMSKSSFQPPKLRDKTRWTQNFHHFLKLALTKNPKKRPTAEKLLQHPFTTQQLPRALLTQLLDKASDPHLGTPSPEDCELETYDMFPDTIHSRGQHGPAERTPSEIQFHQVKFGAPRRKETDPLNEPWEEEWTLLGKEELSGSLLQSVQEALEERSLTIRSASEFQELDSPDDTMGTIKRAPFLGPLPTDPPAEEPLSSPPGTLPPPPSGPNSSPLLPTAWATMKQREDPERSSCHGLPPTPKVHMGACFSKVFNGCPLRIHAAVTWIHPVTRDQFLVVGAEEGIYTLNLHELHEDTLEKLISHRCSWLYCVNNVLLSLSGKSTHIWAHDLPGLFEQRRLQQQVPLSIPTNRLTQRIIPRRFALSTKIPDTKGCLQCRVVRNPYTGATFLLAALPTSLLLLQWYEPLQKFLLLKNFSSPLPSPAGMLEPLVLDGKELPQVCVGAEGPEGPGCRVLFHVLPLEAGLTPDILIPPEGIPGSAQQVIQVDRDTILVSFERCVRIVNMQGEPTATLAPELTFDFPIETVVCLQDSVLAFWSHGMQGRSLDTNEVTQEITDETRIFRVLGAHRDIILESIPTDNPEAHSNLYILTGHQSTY
Put plainly: GCK kinase inhibitory activity. It is filed as biochemical. The settings on record: read-out: Kinase inhibitory efficacy, GI50 GCK. Here is the method: (§1) GI50 values were calculated by measuring the inhibitory efficacy of the compounds of the present invention against both GCK and ACK1 kinases.

Another assay concerns Ba/F3 (N-Ras G12D). Put plainly: Proliferation inhibitory activity, Ba/F3. It is filed as cell-based. The following applies: Mus musculus, BaF3; Ba/F3 (N-Ras G12D) cell line; read-out: Proliferation inhibitory efficacy (GI50, μM) Ba/F3 (N-Ras G12D). How it is done: (§2) GI50 values were calculated by measuring the proliferation inhibitory efficacy of the compounds of the present invention on mt-NRAS (G12D) Ba/F3, U937 (wt-NRAS) and OCI-AML3 (mt-NRAS) cell lines.

In the next assay the target is ACK1 (Homo sapiens, UniProt Q07912). Kind of assay: ACK1 kinase inhibitory activity. The settings on record: read-out: Kinase inhibitory efficacy, GI50 ACK1. It counts as biochemical. How it is done: as §1
Sequence of ACK1 (Q07912 whole entry): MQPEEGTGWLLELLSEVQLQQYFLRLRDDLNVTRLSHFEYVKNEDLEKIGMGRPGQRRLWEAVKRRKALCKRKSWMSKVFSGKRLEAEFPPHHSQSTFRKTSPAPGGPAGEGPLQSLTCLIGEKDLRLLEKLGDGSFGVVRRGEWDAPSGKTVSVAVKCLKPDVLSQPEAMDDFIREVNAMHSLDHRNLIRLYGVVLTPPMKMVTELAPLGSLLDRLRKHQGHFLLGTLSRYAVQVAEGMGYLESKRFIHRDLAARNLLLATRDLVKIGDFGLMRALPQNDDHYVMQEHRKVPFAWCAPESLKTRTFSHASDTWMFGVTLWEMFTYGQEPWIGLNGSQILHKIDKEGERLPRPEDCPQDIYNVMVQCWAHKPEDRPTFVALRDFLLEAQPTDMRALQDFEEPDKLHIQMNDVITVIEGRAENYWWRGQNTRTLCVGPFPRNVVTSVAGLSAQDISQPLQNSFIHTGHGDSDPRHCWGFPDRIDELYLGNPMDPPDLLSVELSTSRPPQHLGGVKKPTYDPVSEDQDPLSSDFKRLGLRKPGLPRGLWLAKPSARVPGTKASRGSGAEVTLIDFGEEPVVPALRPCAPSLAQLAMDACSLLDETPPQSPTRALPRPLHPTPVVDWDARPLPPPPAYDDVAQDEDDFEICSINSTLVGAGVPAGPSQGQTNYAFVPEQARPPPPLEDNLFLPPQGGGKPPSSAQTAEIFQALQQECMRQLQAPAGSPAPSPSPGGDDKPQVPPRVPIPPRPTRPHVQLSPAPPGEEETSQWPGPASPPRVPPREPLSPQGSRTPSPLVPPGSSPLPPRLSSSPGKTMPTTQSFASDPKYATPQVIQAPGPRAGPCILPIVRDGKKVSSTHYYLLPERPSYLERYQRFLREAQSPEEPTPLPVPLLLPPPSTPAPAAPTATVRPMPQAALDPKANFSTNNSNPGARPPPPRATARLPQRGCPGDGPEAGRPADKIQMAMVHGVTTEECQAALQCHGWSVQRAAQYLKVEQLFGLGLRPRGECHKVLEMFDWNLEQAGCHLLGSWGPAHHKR
The test system of another assay is OCI-AML3 (N-Ras Q61L). Kind of assay: Proliferation inhibitory activity, OCI-AML3. It counts as cell-based. The following applies: Homo sapiens, OCI-AML-3; OCI-AML3 (N-Ras Q61L) cell line; read-out: Proliferation inhibitory efficacy (GI50, μM) OCI-AML3 (N-Ras Q61L). Here is the method:
as §2
Accordingly, the compounds of the present invention are particularly effective as a therapeutic agent for acute myelogenous leukemia (AML).

The next assay has as its system U937 (N-Ras WT). Kind of assay: Proliferation inhibitory activity, U937. The following applies: Homo sapiens, U-937; U937 (N-Ras WT) cell line; read-out: Proliferation inhibitory efficacy (GI50, μM) U937 (N-Ras WT). It counts as cell-based. Here is the method: as §2

These results are taken from US10059717B2, “Urea compounds containing 3,4-dihydropyrimido[4,5-D]pyrimidin-2(1H)-one skeleton as protein kinase inhibitors” (KOREA INSTITUTE OF SCIENCE AND TECHNOLOGY, priority 2016, dated 2018).

Each structure is given as a SMILES string.

For the compound `COc1ccccc1NC(=O)Nc1ccc(C)c(N2Cc3cnc(Nc4ccc(N5CCC(C(N)=O)CC5)nc4)nc3N(C)C2=O)c1` [Compound No. 18, 1-(5-((6-(5-(3-(2-methoxyphenyl)ureido)-2-methylphenyl)-8-methyl-7-oxo-5,6,7,8-tetrahydropyrimido[4,5-d]pyrimidin-2-yl)amino)pyridin-2-yl)piperidin-4-carboxamide], the GI50 is less than 30 nM at GCK; less than 0.5 µM in the assay on Ba/F3 (N-Ras G12D); 30 to 100 nM at ACK1; less than 0.5 µM in the assay on OCI-AML3 (N-Ras Q61L); no less than 5 µM in the assay with U937 (N-Ras WT).

For `Cc1ccc(Nc2ncc3c(n2)N(C)C(=O)N(c2cc(NC(=O)Nc4cccc(Cl)c4Cl)ccc2C)C3)cn1` [Compound No. 6, 1-(2,3-dichlorophenyl)-3-(4-methyl-3-(1-methyl-7-((6-methylpyridin-3-yl)amino)-2-oxo-1,4-dihydropyrimido[4,5-d]pyrimidin-3(2H)-yl)phenyl)urea], the GI50 at GCK is 100 to 300 nM; with Ba/F3 (N-Ras G12D), 0.5 to 3 µM; at ACK1, less than 30 nM; with OCI-AML3 (N-Ras Q61L), less than 0.5 µM; in the assay on U937 (N-Ras WT), no less than 5 µM.

Regarding `Cc1ccc(Nc2ncc3c(n2)N(C)C(=O)N(c2cc(NC(=O)Nc4ccccc4OC(F)(F)F)ccc2C)C3)cn1` [Compound No. 3, 1-(4-methyl-3-(1-methyl-7-((6-methylpyridin-3-yl)amino)-2-oxo-1,4-dihydropyrimido[4,5-d]pyrimidin-3(2H)-yl)phenyl)-3-(2-(trifluoromethoxy)phenyl)urea], the GI50 was no less than 300 nM on GCK; 3 to 5 µM in the assay on Ba/F3 (N-Ras G12D); less than 30 nM at ACK1; 0.5 to 3 µM in the assay with OCI-AML3 (N-Ras Q61L); no less than 5 µM with U937 (N-Ras WT).

With `Cc1ccc(Nc2ncc3c(n2)N(C)C(=O)N(c2cc(NC(=O)Nc4ccccc4)ccc2C)C3)cn1` [Compound No. 2, 1-(4-methyl-3-(1-methyl-7-((6-methylpyridin-3-yl)amino)-2-oxo-1,4-dihydropyrimido[4,5-d]pyrimidin-3(2H)-yl)phenyl)-3-phenylurea], the GI50 at GCK is 100 to 300 nM; with Ba/F3 (N-Ras G12D), 0.5 to 3 µM; at ACK1, less than 30 nM; in the assay with OCI-AML3 (N-Ras Q61L), 0.5 to 3 µM; in the assay with U937 (N-Ras WT), no less than 5 µM.

As to `Cc1ccc(Nc2ncc3c(n2)N(C)C(=O)N(c2cc(NC(=O)Nc4ccccc4C)ccc2C)C3)cn1` [Compound No. 5, 1-(4-methyl-3-(1-methyl-7-((6-methylpyridin-3-yl)amino)-2-oxo-1,4-dihydropyrimido[4,5-d]pyrimidin-3(2H)-yl)phenyl)-3-(o-tolyl)urea], the GI50 was 100 to 300 nM on GCK; 0.5 to 3 µM in the assay with Ba/F3 (N-Ras G12D); less than 30 nM at ACK1; 0.5 to 3 µM in the assay with OCI-AML3 (N-Ras Q61L); no less than 5 µM in the assay on U937 (N-Ras WT).

For the compound `COc1cccc(NC(=O)Nc2ccc(C)c(N3Cc4cnc(Nc5ccc(C)nc5)nc4N(C)C3=O)c2)c1` [Compound No. 8, 1-(3-methoxyphenyl)-3-(4-methyl-3-(1-methyl-7-((6-methylpyridin-3-yl)amino)-2-oxo-1,4-dihydropyrimido[4,5-d]pyrimidin-3(2H)-yl)phenyl)urea], the GI50 at GCK was 30 to 100 nM; in the assay on Ba/F3 (N-Ras G12D), less than 0.5 µM; on ACK1, less than 30 nM; in the assay on OCI-AML3 (N-Ras Q61L), 0.5 to 3 µM; with U937 (N-Ras WT), no less than 5 µM.

`COc1ccc(NC(=O)Nc2ccc(C)c(N3Cc4cnc(Nc5ccc(C)nc5)nc4N(C)C3=O)c2)cc1` [Compound No. 10, 1-(4-methoxyphenyl)-3-(4-methyl-3-(1-methyl-7-((6-methylpyridin-3-yl)amino)-2-oxo-1,4-dihydropyrimido[4,5-d]pyrimidin-3(2H)-yl)phenyl)urea]: the GI50 on GCK is 30 to 100 nM; with Ba/F3 (N-Ras G12D), less than 0.5 µM; on ACK1 it was 30 to 100 nM; in the assay on OCI-AML3 (N-Ras Q61L), less than 0.5 µM; with U937 (N-Ras WT), no less than 5 µM.

Turning to `Cc1ccc(Nc2ncc3c(n2)N(C)C(=O)N(c2cc(NC(=O)Nc4cccc(C(F)(F)F)c4)ccc2C)C3)cn1` [Compound No. 7, 1-(4-methyl-3-(1-methyl-7-((6-methylpyridin-3-yl)amino)-2-oxo-1,4-dihydropyrimido[4,5-d]pyrimidin-3(2H)-yl)phenyl)-3-(3-(trifluoromethyl)phenyl)urea], the GI50 was 100 to 300 nM on GCK; less than 0.5 µM in the assay with Ba/F3 (N-Ras G12D); less than 30 nM at ACK1; 0.5 to 3 µM in the assay on OCI-AML3 (N-Ras Q61L); no less than 5 µM with U937 (N-Ras WT).

`Cc1ccc(Nc2ncc3c(n2)N(C)C(=O)N(c2cc(NC(=O)Nc4ccc(Cl)c(C(F)(F)F)c4)ccc2C)C3)cn1` [Compound No. 9, 1-(4-chloro-3-(trifluoromethyl)phenyl)-3-(4-methyl-3-(1-methyl-7-((6-methylpyridin-3-yl)amino)-2-oxo-1,4-dihydropyrimido[4,5-d]pyrimidin-3(2H)-yl)phenyl)urea]: the GI50 on GCK was 100 to 300 nM; in the assay on Ba/F3 (N-Ras G12D), 0.5 to 3 µM; at ACK1, 30 to 100 nM; with OCI-AML3 (N-Ras Q61L) it was less than 0.5 µM; with U937 (N-Ras WT), no less than 5 µM.

With `CCN1CCN(c2ccc(Nc3ncc4c(n3)N(C)C(=O)N(c3cc(NC(=O)Nc5ccccc5OC)ccc3C)C4)cn2)CC1` [Compound No. 17, 1-(3-(7-((6-(4-ethylpiperazin-1-yl)pyridin-3-yl)amino)-1-methyl-2-oxo-1,4-dihydropyrimido[4,5-d]pyrimidin-3(2H)-yl)-4-methylphenyl)-3-(2-methoxyphenyl)urea], the GI50 at GCK is less than 30 nM; in the assay with Ba/F3 (N-Ras G12D), less than 0.5 µM; on ACK1, less than 30 nM; with OCI-AML3 (N-Ras Q61L), less than 0.5 µM; in the assay on U937 (N-Ras WT), 0.5 to 3 µM.

In the case of `CNC(=O)c1ccc(Nc2ncc3c(n2)N(C)C(=O)N(c2cc(NC(=O)Nc4ccccc4OC)ccc2C)C3)cn1` [Compound No. 15], the GI50 on GCK is 100 to 300 nM; with Ba/F3 (N-Ras G12D) it was less than 0.5 µM; at ACK1 it was less than 30 nM; in the assay with OCI-AML3 (N-Ras Q61L) it was less than 0.5 µM; with U937 (N-Ras WT), no less than 5 µM.

As for `Cc1ccc(Nc2ncc3c(n2)N(C)C(=O)N(c2cc(NC(=O)Nc4ccccc4C(F)(F)F)ccc2C)C3)cn1` [Compound No. 4, 1-(4-methyl-3-(1-methyl-7-((6-methylpyridin-3-yl)amino)-2-oxo-1,4-dihydropyrimido[4,5-d]pyrimidin-3(2H)-yl)phenyl)-3-(2-(trifluoromethyl)phenyl)urea], the GI50 on GCK was no less than 300 nM; with Ba/F3 (N-Ras G12D), 0.5 to 3 µM; on ACK1 it was less than 30 nM; in the assay on OCI-AML3 (N-Ras Q61L), less than 0.5 µM; in the assay on U937 (N-Ras WT), no less than 5 µM.

For `CCN1CCN(c2ccc(Nc3ncc4c(n3)N(C)C(=O)N(c3cc(NC(=O)Nc5ccccc5OC)ccc3C)C4)cc2)CC1` [Compound No. 11, 1-(3-(7-((4-(4-ethylpiperazin-1-yl)phenyl)amino)-1-methyl-2-oxo-1,4-dihydropyrimido[4,5-d]pyrimidin-3(2H)-yl)-4-methylphenyl)-3-(2-methoxyphenyl)urea], the GI50 at GCK is less than 30 nM; with Ba/F3 (N-Ras G12D), less than 0.5 µM; on ACK1, less than 30 nM; with OCI-AML3 (N-Ras Q61L) it was less than 0.5 µM; in the assay with U937 (N-Ras WT), 0.5 to 3 µM.

Regarding `COc1ccccc1NC(=O)Nc1ccc(C)c(N2Cc3cnc(Nc4cnn(C)c4)nc3N(C)C2=O)c1` [Compound No. 12, 1-(2-methoxyphenyl)-3-(4-methyl-3-(1-methyl-7-((1-methy-1H-pyrazol-4-yl)amino)-2-oxo-1,4-dihydropyrimido[4,5-d]pyrimidin-3(2H)-yl)phenyl)urea], the GI50 at GCK is less than 30 nM; in the assay with Ba/F3 (N-Ras G12D), less than 0.5 µM; at ACK1, less than 30 nM; in the assay with OCI-AML3 (N-Ras Q61L), less than 0.5 µM; with U937 (N-Ras WT) it was no less than 5 µM.

For `COc1ccccc1NC(=O)Nc1ccc(C)c(N2Cc3cnc(Nc4ccc(N5CCN(C(C)=O)CC5)nc4)nc3N(C)C2=O)c1` [Compound No. 13, 1-(3-(7-((6-(4-acetylpiperazin-1-yl)pyridin-3-yl)amino)-1-methyl-2-oxo-1,4-dihydropyrimido[4,5-d]pyrimidin-3(2H)-yl)-4-methylphenyl)-3-(2-methoxyphenyl)urea], the GI50 on GCK is less than 30 nM; in the assay on Ba/F3 (N-Ras G12D), less than 0.5 µM; at ACK1, less than 30 nM; in the assay on OCI-AML3 (N-Ras Q61L), less than 0.5 µM; with U937 (N-Ras WT), no less than 5 µM.
